Reference: ChEMBL document CHEMBL1143690, “The effects of N-terminal part modification of arginine vasopressin analogues with 2-aminoindane-2-carboxylic acid: a highly potent V2 agonist” (J Med Chem, 2007)
Active and inactive are the calls of the source. The calls are words filed in the database; no cut-off is given here. Positions of bridges follow the written chain, without caps; N, C: chain ends. Non-standard residues stand in square brackets, D forms with d. Residues, ends and D or L forms follow the SMILES beside them. Aic = NC1(C(=O)O)Cc2ccccc2C1

What was measured:
[1] = species: Rattus norvegicus; test: In vitro uterotonic activity in Wistar rat oxytocic uterus in absence of Mg2+; format: functional; conditions: for Kb: read-out: pA2 (converted)
[2] = species: Rattus norvegicus; test: Effect on arterial blood pressure in Wistar rat in pressor test; format: functional, organism-based; conditions: for Kb: Rattus norvegicus, Wistar, Arterial blood, read-out: pA2 (converted)
[3] = test system: Rattus norvegicus; test: Antidiuretic activity in sc dosed conscious Wistar rat in an antidiuresis time of t1/2 60 mins relative to AVP; format: functional, Urine
[4] = test system: Rattus norvegicus; test: Antidiuretic activity in sc dosed conscious Wistar rat in an antidiuresis time of t1/2 200 mins relative to dDAVP; format: functional, Urine
[5] = test system: Rattus norvegicus; test: Antidiuretic activity in sc dosed conscious Wistar rat in an antidiuresis time of t1/2 200 mins relative to AVP; format: functional, Urine
[6] = test system: Rattus norvegicus; test: Antidiuretic activity in sc dosed conscious Wistar rat in an antidiuresis time of t1/2 60 mins relative to dDAVP; format: functional, Urine

CC(C)[C@@H]1NC(=O)[C@H](Cc2ccccc2)NC(=O)C2(Cc3ccccc3C2)NC(=O)CCSSC[C@@H](C(=O)N2CCC[C@H]2C(=O)N[C@H](CCCN=C(N)N)C(=O)NCC(N)=O)NC(=O)[C@H](CC(N)=O)NC1=O [listing 1 of 2 here]
Kb [1]: 8.71 nM | Kb [2]: 562 nM

NC(=O)CC[C@@H]1NC(=O)[C@H](Cc2ccccc2)NC(=O)C2(Cc3ccccc3C2)NC(=O)[C@@H](N)CSSC[C@@H](C(=O)N2CCC[C@H]2C(=O)N[C@@H](CCCN=C(N)N)C(=O)NCC(N)=O)NC(=O)[C@H](CC(N)=O)NC1=O [listing 1 of 2 here]
Activity [3]: 450 IU/mg | Activity [4]: 10% | Activity [5]: 45000 IU/mg | Activity [6]: 10% | Activity [2]: 9.4 IU/mg

NC(=O)CC[C@@H]1NC(=O)[C@H](Cc2ccccc2)NC(=O)C2(Cc3ccccc3C2)NC(=O)CCSSC[C@@H](C(=O)N2CCC[C@H]2C(=O)N[C@H](CCCN=C(N)N)C(=O)NCC(N)=O)NC(=O)[C@H](CC(N)=O)NC1=O [listing 1 of 2 here]
Kb [1]: 49 nM | Kb [2]: 2510 nM

NC(=O)CC[C@@H]1NC(=O)[C@H](Cc2ccccc2)NC(=O)C2(Cc3ccccc3C2)NC(=O)CCSSC[C@@H](C(=O)N2CCC[C@H]2C(=O)N[C@@H](CCCN=C(N)N)C(=O)NCC(N)=O)NC(=O)[C@H](CC(N)=O)NC1=O [listing 1 of 2 here]
Kb [1]: 31.6 nM

CC(C)[C@@H]1NC(=O)[C@H](Cc2ccccc2)NC(=O)C2(Cc3ccccc3C2)NC(=O)CCSSC[C@@H](C(=O)N2CCC[C@H]2C(=O)N[C@H](CCCN=C(N)N)C(=O)NCC(N)=O)NC(=O)[C@H](CC(N)=O)NC1=O [listing 2 of 2 here]
Activity [3]: 4500 IU/mg | Activity [4]: 100% | Activity [5]: 450000 IU/mg | Activity [6]: 50%

NC(=O)CC[C@@H]1NC(=O)[C@H](Cc2ccccc2)NC(=O)C2(Cc3ccccc3C2)NC(=O)CCSSC[C@@H](C(=O)N2CCC[C@H]2C(=O)N[C@H](CCCN=C(N)N)C(=O)NCC(N)=O)NC(=O)[C@H](CC(N)=O)NC1=O [listing 2 of 2 here]
Activity [3]: 450 IU/mg | Activity [4]: 10% | Activity [5]: 45000 IU/mg | Activity [6]: 10%

CC(C)[C@@H]1NC(=O)[C@H](Cc2ccccc2)NC(=O)C2(Cc3ccccc3C2)NC(=O)[C@@H](N)CSSC[C@@H](C(=O)N2CCC[C@H]2C(=O)N[C@@H](CCCN=C(N)N)C(=O)NCC(N)=O)NC(=O)[C@H](CC(N)=O)NC1=O (H-C[Aic]FVNCPRG-NH2; disulfide 1-6) [listing 1 of 2 here]
Activity [3]: 450 IU/mg | Activity [4]: 10% | Activity [5]: 45000 IU/mg | Activity [6]: 10% | Activity [2]: 0 IU/mg

NC(=O)CC[C@@H]1NC(=O)[C@H](Cc2ccccc2)NC(=O)C2(Cc3ccccc3C2)NC(=O)[C@@H](N)CSSC[C@@H](C(=O)N2CCC[C@H]2C(=O)N[C@H](CCCN=C(N)N)C(=O)NCC(N)=O)NC(=O)[C@H](CC(N)=O)NC1=O [listing 1 of 2 here]
Kb [1]: 138 nM

NC(=O)CC[C@@H]1NC(=O)C2(Cc3ccccc3C2)NC(=O)[C@H](Cc2ccc(O)cc2)NC(=O)[C@H](N)CSSC[C@H](C(=O)N2CCC[C@H]2C(=O)N[C@@H](CCCN=C(N)N)C(=O)NCC(N)=O)NC(=O)[C@H](CC(N)=O)NC1=O
Activity [1]: inactive | Activity ([3]; Urine): inactive | Activity ([4]; Urine): inactive | Activity ([5]; Urine): inactive | Activity ([6]; Urine): inactive | Activity [2]: inactive

NC(=O)CC[C@@H]1NC(=O)[C@H](Cc2ccccc2)NC(=O)C2(Cc3ccccc3C2)NC(=O)CCSSC[C@@H](C(=O)N2CCC[C@H]2C(=O)N[C@@H](CCCN=C(N)N)C(=O)NCC(N)=O)NC(=O)[C@H](CC(N)=O)NC1=O [listing 2 of 2 here]
Activity [3]: 450 IU/mg | Activity [4]: 10% | Activity [5]: 45000 IU/mg | Activity [6]: 10% | Activity [2]: 5.3 IU/mg

CC(C)[C@@H]1NC(=O)[C@H](Cc2ccccc2)NC(=O)C2(CCCCC2)NC(=O)CCSSC[C@@H](C(=O)N2CCC[C@H]2C(=O)N[C@H](CCCN=C(N)N)C(=O)NCC(N)=O)NC(=O)[C@H](CC(N)=O)NC1=O
Kb [1]: 15.5 nM | Activity [3]: 4500 IU/mg | Activity [4]: 10% | Activity [5]: 50000 IU/mg | Activity [6]: 50% | Kb [2]: 724 nM

NC(=O)CC[C@@H]1NC(=O)[C@H](Cc2ccccc2)NC(=O)C2(Cc3ccccc3C2)NC(=O)[C@@H](N)CSSC[C@@H](C(=O)N2CCC[C@H]2C(=O)N[C@H](CCCN=C(N)N)C(=O)NCC(N)=O)NC(=O)[C@H](CC(N)=O)NC1=O [listing 2 of 2 here]
Activity [3]: 45 IU/mg | Activity [4]: 1% | Activity [5]: 4500 IU/mg | Activity [6]: 1% | Activity [2]: 0 IU/mg

NC(=O)CC[C@@H]1NC(=O)C2(Cc3ccccc3C2)NC(=O)[C@H](Cc2ccc(O)cc2)NC(=O)[C@H](N)CSSC[C@H](C(=O)N2CCC[C@H]2C(=O)N[C@H](CCCN=C(N)N)C(=O)NCC(N)=O)NC(=O)[C@H](CC(N)=O)NC1=O
Activity [1]: inactive | Activity ([3]; Urine): inactive | Activity ([4]; Urine): inactive | Activity ([5]; Urine): inactive | Activity ([6]; Urine): inactive | Activity [2]: inactive

NC(=O)CC[C@@H]1NC(=O)C2(Cc3ccccc3C2)NC(=O)[C@H](Cc2ccc(O)cc2)NC(=O)CCSSC[C@H](C(=O)N2CCC[C@H]2C(=O)N[C@@H](CCCN=C(N)N)C(=O)NCC(N)=O)NC(=O)[C@H](CC(N)=O)NC1=O
Activity [1]: inactive | Activity ([3]; Urine): inactive | Activity ([4]; Urine): inactive | Activity ([5]; Urine): inactive | Activity ([6]; Urine): inactive | Activity [2]: inactive

NC(=O)CC[C@@H]1NC(=O)[C@H](Cc2ccccc2)NC(=O)C2(Cc3ccccc3C2)NC(=O)[C@@H](N)CSSC[C@@H](C(=O)N2CCC[C@H]2C(=O)N[C@@H](CCCN=C(N)N)C(=O)NCC(N)=O)NC(=O)[C@H](CC(N)=O)NC1=O [listing 2 of 2 here]
Kb [1]: 53.7 nM

CC(C)[C@@H]1NC(=O)[C@H](Cc2ccccc2)NC(=O)C2(Cc3ccccc3C2)NC(=O)[C@@H](N)CSSC[C@@H](C(=O)N2CCC[C@H]2C(=O)N[C@@H](CCCN=C(N)N)C(=O)NCC(N)=O)NC(=O)[C@H](CC(N)=O)NC1=O (H-C[Aic]FVNCPRG-NH2; disulfide 1-6) [listing 2 of 2 here]
Kb [1]: 11.7 nM
